{
  "source": "patent US20200360466A1",
  "about": "“METHOD OF IMPROVING LOWER URINARY TRACT SYMPTOMS” (Nymox Corporation, priority 2019, published 2020)",
  "format_in_all_cases": "in vivo, human",
  "key": {"[1]": {"tested_on": "patients with BPH who optionally also had LUTS", "assay": "IPSS symptom evaluation after a single intraprostatic injection of FT or PBS, double-blind (Example One)", "experimental": "Patients with BPH and who optionally also had LUTS were given an intraprostatic injection of either a) FT (SEQ ID NO. 1 (Ile-Asp-Gln-Gln-Val-Leu-Ser-Arg-Ile-Lys-Leu-Glu-Ile-Lys-Arg-Cys-Leu), 2.5 mg) in phosphate buffered saline pH 7.2 (“PBS”) or b) PBS alone, under double-blind conditions by a urologist in an office setting under ultrasound guidance. Patients were followed for 1 to 6 years with regular physical examinations, laboratory tests, and evaluations of symptoms. Symptomatic evaluation was measured by the International Prostate Symptom Score (IPSS) which is a quantitative scale used to gauge prostatic symptomatic improvement or worsening. The IPSS quantifies the following: 1) incomplete bladder emptying after urination; 2) frequent urination; 3) stopping and starting during urination; 4) urgent need to urinate; 5) weakness of urinary stream; 6) need to push or strain during urination; 7) need to urinate after going to sleep at night (nocturia).\nIPSS items 1, 3, 5 and 6 comprise the obstructive voiding scales and IPSS items 2, 4, and 7 comprise the irritative storage scales. The difference from baseline irritative storage scores to follow-up scores; and from baseline obstructive voiding scores to follow-up scores were calculated in FT treated subjects and Placebo treated controls."}, "[2]": {"tested_on": "patients with BPH who also optionally had LUTS", "assay": "IPSS obstructive voiding scores after placebo injection followed by cross-over FT injection (Example Three)", "source_text": "In a third analysis group, patients with BPH who also optionally had LUTS were given an intraprostatic injection of PBS pH 7.2 vehicle alone, under double-blind conditions by a urologist in an office setting under ultrasound guidance. Patients were followed for 1 to 3 years with regular physical examinations, laboratory tests, and evaluations of symptoms. 131 patients who received PBS vehicle alone injections after 1-3 years received a cross-over injection of FT (SEQ ID NO. 1 (Ile-Asp-Gln-Gln-Val-Leu-Ser-Arg-Ile-Lys-Leu-Glu-Ile-Lys-Arg-Cys-Leu), 2.5 mg) in phosphate buffered saline pH 7.2 (“PBS”). The differences from baseline obstructive voiding scores to follow-up scores were calculated in blinded placebo treated patients (Group One); blinded placebo treated patients who received subsequent conventional oral BPH medications (Group Two), and blinded placebo treated patients who subsequently received FT treatment (Group Three)."}, "[3]": {"tested_on": "patients with BPH who also optionally had LUTS", "assay": "IPSS obstructive voiding scores in all patients who received FT versus placebo alone (Example Four)", "details": "Table 4, all FT-treated patients vs placebo alone", "source_text": "In a fourth analysis group, patients with BPH who also optionally had LUTS were given an intraprostatic injection of PBS pH 7.2 vehicle alone or of FT, under double-blind conditions by a urologist in an office setting under ultrasound guidance. Patients were followed for 1 to 3 years with regular physical examinations, laboratory tests, and evaluations of symptoms. 217 patients received double blind placebo alone (Group One). 287 patients received double blind FT alone (Group Two). After 1-3 years, 131 patients who received PBS vehicle alone injections received a cross-over injection of FT (Group Three). The final group of 189 patients received blinded FT followed after 1-3 years by a second injection of FT (Group Four). The difference from baseline obstructive voiding scores to follow-up scores were calculated in blinded placebo treated patients (n=217), and compared to groups 2-4 who received FT treatment (n=607)."}, "[4]": {"details": "Table 1, single FT injection vs PBS control"}, "[5]": {"details": "general statement in the description"}},
  "note": "Where no end group is shown, it is not given here.",
  "data": [
    {"substance": "Ile-Asp-Gln-Gln-Val-Leu-Ser-Arg-Ile-Lys-Leu-Glu-Ile-Lys-Arg-Cys-Leu (IDQQVLSRIKLEIKRCL; also: trifluoroacetate salt) [SEQ ID NO: 1-FT, 17-mer peptide …]", "values": [
      {"measurement": "improvement in MISS measured by IPSS compared to control composition that does not contain FT", "setting": "[1]; [4]", "result": "more than 34%"},
      {"measurement": "improvement in MOVS measured by IPSS compared to control composition that does not contain FT", "setting": "[1]; [4]", "result": "more than 46%"},
      {"measurement": "improvement in MISS measured by IPSS compared to control composition that does not contain FT", "setting": "[1]; [5]", "result": "more than 20%"},
      {"measurement": "improvement in MOVS measured by IPSS compared to control composition that does not contain FT", "setting": "[1]; [5]", "result": "more than 30%"},
      {"measurement": "improvement in MOVS measured by IPSS compared to placebo control followed by conventional oral BPH medication", "setting": "[2]; Table 3, cross-over FT injection", "result": "more than 320%"},
      {"measurement": "improvement in MOVS measured by IPSS compared to control composition that does not contain FT", "setting": "[2]; Table 3, cross-over FT injection vs placebo alone", "result": "more than 104%"},
      {"measurement": "improvement in MOVS measured by IPSS compared to control composition that does not contain FT", "setting": "[3]", "result": "more than 105%"}
    ]}
  ]
}
